The text below walks through data of patent EP2535049A1 (Proyecto de Biomedicina Cima, S.L., priority 2011, dated 2012).

The test system of one data set is pTau. Description: Western blot of pTau in hippocampus of J20 mice. Type of data set: in vivo. Particulars: J20 mice (22-month-old) treated for 10 weeks, normalized to total Tau. The procedure:
(§1) Results were compared with those obtained from age-matched negative littermates (controls). To test the effect of the PDE5 inhibitors in cognition capacity related to aging, a second treatment was carried out using 10-12 month-old non-transgenic (wild type) mice on an inbred C57/B6xSJL genetic background.
Twenty four hours after the fear conditioning test, animals (n=5, per group) were sacrificed and the brains removed for biochemical studies. The cortex and hippocampus were dissected, homogenized, and processed as described below for subsequent western blot analysis. Under xylazine/ketamine anesthesia, animals (n=4 per group) were perfused transcardially with saline and 4% paraformaldehyde in phosphate buffer (PB). After perfusion, brains were removed, post-fixed in the same fixative solution for 1 h at room temperature and cryoprotected in 30% sucrose solution in PB overnight at 4 °C. Microtome sections ([…]) were cut coronally, collected free-floating and stored in 30% ethylene glycol, 30% glycerol, and 0.1M PB at - 20 °C until processed.
(§2) Total tissue homogenates were obtained by homogenizing the hippocampus in a cold lysis buffer with protease inhibitors (0.2 M NaCl, 0.1 M HEPES, 10% glycerol, 200 mM NaF, 2 mM Na4P2O7, 5 mM EDTA, 1 mM EGTA, 2 mM DTT, 0.5 mM PMSF, 1 mM Na3VO4, 1 mM benzamidine, 10 µg/ml leupeptin, 400 U/ml aprotinin), centrifuged at 14,000 x g 4 °C for 20 minutes and the supernatant was aliquoted and stored at -80 °C. Total protein concentrations were determined using the BioRad Bradford protein assay (BioRad Laboratories).
Protein samples were mixed with an equal volume of 2 x Laemmli sample buffer, resolved onto SDS-polyacrylamide gels and transferred to nitrocellulose membrane. […] Following two washes in PBS/Tween-20 or TBS/Tween-20 and one PBS or TBS alone, immunolabeled protein bands were detected by using HRP-conjugated anti-rabbit or anti-mouse antibody (Santa Cruz; dilution 1:5000) following an enhanced chemiluminescence system (ECL, GE Healthcare Bioscience, Buckinghamshire, UK), and autoradiographic exposure to Hyperfilm™ECL (GE Healthcare Bioscience). Quantity OneTM software v.4.6.3 (Bio-Rad) was used for quantification.
On the technique in general: In western blotting, separated proteins are transferred to a membrane and probed.

The next data set relates to pGSK3β-Ser9. As to the kind of experiment: Western blot of pGSK3β-Ser9 in hippocampus of J20 mice. Type of data set: in vivo. Particulars: J20 mice treated for 10 weeks, vs saline. The procedure: as §1
(§3) Twenty four hours after the fear conditioning test, animals (n=5, per group) were sacrificed and the brains removed for biochemical studies. The cortex and hippocampus were dissected, homogenized, and processed as described below for subsequent western blot analysis. […]
as §2
(§4) Protein samples were mixed with an equal volume of 2 x Laemmli sample buffer, resolved onto SDS-polyacrylamide gels and transferred to nitrocellulose membrane. […] Quantity OneTM software v.4.6.3 (Bio-Rad) was used for quantification.

Another data set concerns GluR2/3. As to the kind of experiment: Western blot of GluR2/3 in hippocampus of J20 mice. Type of data set: in vivo. The note with it: J20 mice treated for 10 weeks. The protocol:
as §1, §3, §2, §4

The next data set has as its system PSD95. Description: Western blot of PSD95 in hippocampus of J20 mice. It counts as in vivo. Particulars: J20 mice treated for 10 weeks. The protocol: as §1, §3, §2, §4
Data set [1] concerns aged wild type animals (C57/b6xSJL). As to the kind of experiment: Morris water maze in aged wild type animals. Type of data set: in vivo, mice. Particulars: 5-weeks treatment, 15 mg/Kg orally; aged (12-14-month-old) wild type animals; vs saline. The procedure: Results were compared with those obtained from age-matched negative littermates (controls). […] The MWM test was used to evaluate spatial memory as previously described (Hsiao et al., 1996; Reed et al., 2010; Ricobaraza et al., 2009). After treatments, groups of animals underwent spatial reference learning and memory testing in the MWM. The water maze was a circular pool (diameter 1.2 m) filled with water maintained at 20 °C and made opaque by the addition of non-toxic white paint. Mice were trained for three consecutive days (8 trials/day) swimming to a raised platform (visible-platform). No distal visible cues were present during this phase. The same platform location was used for all visible-platform sessions and was changed for the invisible-platform training (submerged 1 cm beneath the surface) conducted over 8 consecutive days (4 trials/day) with all visible distal cues present in this phase. […] In the probe trials the platform was removed from the pool, and the percentage of time spent in the quadrant where the platform was previously set was recorded. All trials were monitored by a camera above the center of the pool connected to a SMART-LD program (Panlab S.L., Barcelona, Spain) for subsequent analysis of escape latencies, swimming speed, path length and percent time spent in each quadrant of the pool during probe trials. […]

Data set [2] shares this test system. As to the kind of experiment: Fear conditioning test in aged wild type animals. Type of data set: in vivo, mice. The note with it: 5-weeks treatment, 15 mg/Kg orally, aged (12-14-month-old) wild type animals, 24h and 7 days after training, vs saline. The procedure:
Results were compared with those obtained from age-matched negative littermates (controls). […] After running the MWM, all the animals were trained in the fear conditioning test. The conditioning procedure was carried out in a StartFear system (Panlab S.L.) that allows recording and analysis of the signal generated by the animal movement through a high sensitivity Weight Transducer system. The analogical signal is transmitted to the FREEZING and […] software modules through the load cell unit for recording purposes and posterior analysis in terms of activity/immobility. The conditioning box is housed inside a soundproof chamber, which minimized external stimulation during the conditioning and retention tests. The box was provided with a house light that supplied dim illumination and with a floor grid through which foot shocks could be administered. On training day, the mice were placed in the conditioning chamber for 2 minutes before the onset of a tone at 2800 Hz, 85 dB (conditioned stimulus, CS), which lasted for 30 seconds. The last 2 seconds of the CS was paired with a 0.3 mA foot shock (unconditioned stimulus, US). Thirty seconds after the paired CS-US, mice were returned to their cage. […] Freezing behavior was defined as the lack of movement except for breathing for at least 2 seconds, and was analyzed to give the percentage time freezing during exposure to the chamber. […]

The conditions of data set [3]: Kulkarni and Patil 2004; Forgue et al., 2006; cited from earlier work.

Entries after “also recorded” stand apart in the source; their conditions may differ.

`CCCc1nn(C)c2c(=O)[nH]c(-c3cc(S(=O)(=O)N4CCN(C)CC4)ccc3OCC)nc12` [sildenafil]: in the data set on pTau, the “pTau levels (AT8) by Western blotting” value is “decrease in Tau pathology”. Further, the pGSK3β-Ser9 levels entry in the data set with pGSK3β-Ser9 is “significantly increased”. For the same compound, in the data set on GluR2/3, the “expression levels of GluR2/3” value is on record as “recovered the low expression levels”. The “expression levels of PSD95” value with PSD95 is given as “recovered the low expression levels”. Besides, the “learning ability and memory retention in the MWM” value in data set [1] is reported as “only observed in the FC test”. The “learning ability and memory retention in the FC test” value in data set [2] is on record as “significant enhancement of memory; also recorded: only observed in the FC test (24h after training)”. The “half-life in blood serum” value in data set [3] is 3.4 h.

For `CN1CC(=O)N2[C@H](c3ccc4c(c3)OCO4)c3[nH]c4ccccc4c3C[C@@H]2C1=O` [tadalafil, (6R-trans)-6-(1,3-benzodioxol-5-yl)-2,3,6,7,12,12a-hexahydro-2-methyl-pyrazino [1',2':1,6] pyrido [3,4-b]indole-1,4-dione], in the data set with pTau, the “pTau levels (AT8) by Western blotting” value is recorded as “decrease in Tau pathology” and the “pTau levels (PHF1) by Western blotting” value is “more marked in tadalafil-treated mice”. In the data set on pTau (listed as Tadalafil), the “pTau levels (AT8) by Western blotting” value was “even more effective than sildenafil”. The pGSK3β-Ser9 levels result in the data set on pGSK3β-Ser9 is recorded as “significantly increased; also recorded: being higher the effect of tadalafil”. Further, the “expression levels of GluR2/3” value with GluR2/3 is listed as “recovered the low expression levels”. Further, the “expression levels of PSD95” value with PSD95 is listed as “recovered the low expression levels”. Also, the “learning ability and memory retention in the MWM” value in data set [1] was “improved learning ability and memory retention”. The “learning ability and memory retention in the FC test” value in data set [2] was “significant enhancement of memory; also recorded: improved learning ability and memory retention”. In data set [3], the “half-life in blood serum” value is 18 h.
